Experimental data published in article PMC5047049, “Characterization of a functional C3A liver spheroid model” (Toxicology Research, 2016).
Entries after “also recorded” stand apart in the source; their conditions may differ. Read-outs that look alike come from different tables or passages of the source.

Key:
[1] = system: MRP2 and Pgp transporters; test: Analysis of transporter function with CMFDA substrate in C3A spheroids; assay type: cell-based; conditions: 30 min
Experimental: (§1) Spheroids and monolayers were incubated with 5 μM 5-chloromethylfluorescein diacetate (CMFDA-Life Technologies) with or without 25 μM MK571 (MRP inhibitor) and 12.5 μM PSC833 (Pgp inhibitor) in EMEM for 30 min at 37 °C. CMFDA is membrane permeable until it enters cell and is converted to glutathione-methylfluorescein (GSMF), a cell impermeable substrate for MRP and Pgp.[40] Cells and spheroids were washed in PBS and prepared for immunofluorescence as described above.

[2] = system: MRP2 and Pgp transporters; test: Analysis of transporter function with CMFDA substrate in 2D monolayer C3A cells; assay type: cell-based; conditions: 5 μM CMFDA, 30 min
Experimental: as §1

[3] = system: C3A spheroids; test: Toxicological analysis: Cell Titer-Glo cell viability in C3A spheroids, 4 days with repeat dosing; assay type: cell-based
Experimental: Spheroids were created using the liquid overlay technique as previously described.[38] Briefly, 100 μl of sterile 1.5% Agarose (high gelling temperature-Sigma Aldrich) in EMEM was added per well to flat-bottomed 96-well cell culture plates to form a low-adherence surface. Additionally Ultra Low Adherence plates (ULA-Corning) were used as a comparison. C3A cells were seeded at 500, 750, 1000, 1500, 2000 or 2500 cells per well in 100 μl media and left for 72 hours to form spheroids. Media was renewed twice weekly and spheroids were cultured for up to 32 days. Images of spheroids in culture were taken by phase-contrast microscopy through 4× objective and maximum spheroid diameter measured. Spheroids were treated at day 3 of culture with hepatotoxic compounds acetaminophen, fialuridine, diclofenac and trovafloxacin diluted in 0.5% DMSO in EMEM for 4 days with repeat dosing on day 2. Monolayer C3A cells were treated with compounds for 24 hours. Cell viability was analysed using Cell Titer-Glo assay (Promega) according to the manufacturer's instructions and plotted as a percentage of untreated control.

[4] = system: HepG2 monolayer cultures; set-up: method as in PMID 9862754; conditions: cited from earlier work
[5] = system: C3A 2D monolayer; test: Toxicological analysis: Cell Titer-Glo cell viability in C3A 2D monolayer, 24 hours; assay type: cell-based
Experimental: C3A cells were maintained in EMEM (LGC Standards) supplemented with 10% FBS and 1% penicillin–streptomycin under standard cell culture conditions. For 2D monolayer experiments C3A cells were seeded and left to adhere for 24 hours and confirmed to be 100% confluent before analyses. Spheroids were treated at day 3 of culture with hepatotoxic compounds acetaminophen, fialuridine, diclofenac and trovafloxacin diluted in 0.5% DMSO in EMEM for 4 days with repeat dosing on day 2. Monolayer C3A cells were treated with compounds for 24 hours. Cell viability was analysed using Cell Titer-Glo assay (Promega) according to the manufacturer's instructions and plotted as a percentage of untreated control.

[6] = Homo sapiens, spheroids from 1000 C3A cells, treated at day 3 for 4 days with repeat dosing on day 2, read-out: IC50 value in C3A spheroids
[7] = Homo sapiens, monolayer C3A cells treated for 24 hours, read-out: IC50 value in C3A 2D monolayer (converted)

CC(=O)Oc1ccc2c(c1)Oc1cc(OC(C)=O)ccc1C21OC(=O)c2cc(CCl)ccc21 [CMFDA, 5-chloromethylfluorescein diacetate]
CMFDA localisation in spheroids ([1]; 5 μM CMFDA, C3A spheroids): accumulation and co-localisation of the compound within secondary canalicular-like structures; also recorded: accumulation of CMFDA in the bile canalicular structures | CMFDA localisation in spheroids with MRP and Pgp transporters blocked ([1]; with 25 μM MK571 (MRP inhibitor) and 12.5 μM PSC833 (Pgp inhibitor)): retained in the cell cytoplasm | CMFDA localisation in 2D monolayer [2]: retained CMFDA (green) within the cell cytoplasm

O=C(O)Cc1ccccc1Nc1c(Cl)cccc1Cl [Diclofenac]
IC50 [3, 6]: 295 µM | IC50 [4]: ~763 µM | IC50 value in C3A 2D monolayer ([5]; monolayer C3A cells treated for 24 hours): Non toxic | IC50 value in C3A 2D monolayer ([5]; monolayer C3A cells treated for 24 hours, listed as diclofenac): did not have a toxic response at the concentrations used

O=c1[nH]c(=O)n([C@@H]2O[C@H](CO)[C@@H](O)[C@@H]2F)cc1I [Fialuridine]
IC50 [3, 6]: 206 µM | IC50 [5, 7]: 380 µM

CC(=O)Nc1ccc(O)cc1 [Paracetamol]
IC50 ([3]; 96 h, C3A spheroids, 4 days repeat dosing, read-out: IC50 in spheroids): 7200 µM | IC50 [3, 6]: 7210 µM | IC50 ([5]; C3A monolayer, 24 hours, read-out: IC50 in monolayer culture): 33800 µM | IC50 [5, 7]: 33800 µM

N[C@@H]1[C@H]2CN(c3nc4c(cc3F)c(=O)c(C(=O)O)cn4-c3ccc(F)cc3F)C[C@@H]12 [Trovafloxacin]
IC50 [3, 6]: 65 µM | IC50 [5, 7]: 440 µM
